Measured values from ChEMBL document CHEMBL1153625, “Structure-based virtual screening approach to identify novel classes of Cdc25B phosphatase inhibitors” (Bioorg Med Chem Lett, 2009).

How the values were obtained:
[1] = target: T1, M-phase inducer phosphatase 2 (Homo sapiens, UniProt P30305); assay: Inhibition of GST-fused Cdc25B
T1 sequence (P30305 whole entry): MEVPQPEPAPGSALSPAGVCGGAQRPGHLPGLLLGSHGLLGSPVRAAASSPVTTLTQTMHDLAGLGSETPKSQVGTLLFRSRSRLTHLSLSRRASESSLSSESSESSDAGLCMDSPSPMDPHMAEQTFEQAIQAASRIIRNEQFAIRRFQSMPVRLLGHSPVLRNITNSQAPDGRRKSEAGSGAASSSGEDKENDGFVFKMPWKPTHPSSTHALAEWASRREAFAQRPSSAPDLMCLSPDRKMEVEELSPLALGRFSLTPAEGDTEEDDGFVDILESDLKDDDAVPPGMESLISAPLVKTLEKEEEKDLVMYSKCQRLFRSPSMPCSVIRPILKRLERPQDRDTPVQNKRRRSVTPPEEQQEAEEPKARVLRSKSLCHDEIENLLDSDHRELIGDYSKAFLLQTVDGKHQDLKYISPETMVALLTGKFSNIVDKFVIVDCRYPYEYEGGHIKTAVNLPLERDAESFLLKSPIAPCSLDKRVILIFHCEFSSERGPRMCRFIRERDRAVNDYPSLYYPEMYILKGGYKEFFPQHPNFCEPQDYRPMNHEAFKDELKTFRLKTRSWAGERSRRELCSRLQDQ

[2] = target: T2, M-phase inducer phosphatase 1 (Homo sapiens, UniProt P30304); assay: Inhibition of Cdc25A
T2 sequence (P30304 whole entry): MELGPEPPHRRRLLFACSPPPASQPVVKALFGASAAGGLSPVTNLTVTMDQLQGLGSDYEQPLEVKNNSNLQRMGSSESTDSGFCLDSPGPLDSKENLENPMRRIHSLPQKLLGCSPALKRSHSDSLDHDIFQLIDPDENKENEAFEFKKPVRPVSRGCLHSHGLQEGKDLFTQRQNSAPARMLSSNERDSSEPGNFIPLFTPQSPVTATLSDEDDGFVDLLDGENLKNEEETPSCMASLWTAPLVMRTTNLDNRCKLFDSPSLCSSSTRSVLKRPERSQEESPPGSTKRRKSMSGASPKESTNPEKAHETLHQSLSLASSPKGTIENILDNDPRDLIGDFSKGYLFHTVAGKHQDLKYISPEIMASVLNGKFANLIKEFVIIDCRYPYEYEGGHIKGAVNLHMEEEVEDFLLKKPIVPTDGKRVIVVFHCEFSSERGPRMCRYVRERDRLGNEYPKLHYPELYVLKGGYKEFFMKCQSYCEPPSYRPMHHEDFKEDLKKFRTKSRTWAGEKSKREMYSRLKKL

[3] = target: T3, Tyrosine-protein phosphatase 1 (Saccharomyces cerevisiae S288c, UniProt P25044); assay: Inhibition of YPTP1
T3 sequence (P25044 whole entry): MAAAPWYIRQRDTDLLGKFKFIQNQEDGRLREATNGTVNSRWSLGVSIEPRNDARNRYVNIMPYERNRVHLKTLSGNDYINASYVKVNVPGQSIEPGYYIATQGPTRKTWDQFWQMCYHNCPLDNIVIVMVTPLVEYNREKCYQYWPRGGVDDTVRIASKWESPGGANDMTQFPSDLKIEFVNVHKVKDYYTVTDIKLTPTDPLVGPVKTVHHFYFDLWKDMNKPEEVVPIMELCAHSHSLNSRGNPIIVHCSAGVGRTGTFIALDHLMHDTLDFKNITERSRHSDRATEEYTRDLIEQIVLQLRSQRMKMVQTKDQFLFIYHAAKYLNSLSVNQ

[4] = Inhibition of YOP; parameters: species or system Yersinia
[5] = target: T4, Tyrosine-protein phosphatase non-receptor type 1 (Homo sapiens, UniProt P18031); assay: Inhibition of PTP1B
T4 sequence (P18031 whole entry): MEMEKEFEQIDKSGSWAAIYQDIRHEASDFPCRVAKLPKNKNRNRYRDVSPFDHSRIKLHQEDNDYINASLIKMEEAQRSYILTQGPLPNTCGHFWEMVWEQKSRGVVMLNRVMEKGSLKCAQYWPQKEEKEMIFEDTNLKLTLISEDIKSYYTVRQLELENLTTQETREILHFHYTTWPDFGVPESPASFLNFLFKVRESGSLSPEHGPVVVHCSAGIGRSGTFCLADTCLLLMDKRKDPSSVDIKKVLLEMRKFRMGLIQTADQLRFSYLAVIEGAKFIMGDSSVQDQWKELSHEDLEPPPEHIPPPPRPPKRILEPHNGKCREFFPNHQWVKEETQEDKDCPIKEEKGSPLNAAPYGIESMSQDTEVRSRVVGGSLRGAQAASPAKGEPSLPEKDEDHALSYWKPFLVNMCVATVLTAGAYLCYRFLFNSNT

SMILES	IC50 [1] [µM]	IC50 [2] [µM]	IC50 [3] [µM]	IC50 [4] [µM]	IC50 [5] [µM]
N#Cc1c(N)n(Cc2ccc3c(c2)OCO3)c2nc3ccccc3nc12	9.1	5.5	–	–	–
Nc1cccc(Nc2nc3ccccc3nc2NS(=O)(=O)c2ccc(Cl)cc2)c1	11.1	2.3	–	–	–
O=C(O)c1ccc2c(c1)C(=O)/C(=C/c1ccccc1)C2=O	8.6	13.3	–	–	–
O=S(=O)(Nc1cc2nc3ccccc3nc2n1Cc1ccccc1)c1ccccc1	0.21	2.1	> 100	> 100	> 100
O=C(Nc1ccc(Cl)c(Cl)c1)Nc1ncc2c(n1)CC(c1ccco1)CC2=O (configuration not stated)	13.7	17.8	–	–	–
O=C1C(Cl)=C(NC(Cc2ccccc2)C(=O)O)C(=O)c2ccccc21 (configuration not stated)	3.8	3.5	–	–	–
O=C1C(Cl)=C(NCCc2ccc(F)cc2)C(=O)c2ccccc21	9.5	3.9	–	–	–
N#Cc1c(NS(=O)(=O)c2ccccc2)n(Cc2ccccc2)c2nc3ccccc3nc12	0.2	2.9	> 100	> 100	> 100
